# Test results as given in patent US10758517B2, “mPGES-1 inhibitor for the treatment of osteoarthritis pain” (Glenmark Pharmaceuticals S.A., priority 2017, dated 2020).
# Where two headings read alike, the source gives them in different places.
# Experiments:
# LPS-induced PGE2 release = assay: Ex vivo LPS-induced PGE2 release in whole blood, multiple oral doses for 28 days (Example 2, Part 1); set-up: species or system human; conditions: for EAUC0-24 h, Difference in LS means (Compound I − placebo) / EAUC0-24 h, LS means / ETmax (time to reach maximum effect), Median / ETmax, median difference from placebo / Eavg0-24 h, Difference in LS means (Compound I − placebo) / Epeak, Difference in LS means (Compound I − placebo) / Emax at 25 mg / Emax at 75 mg / Emax at 130 mg / inhibition at 25 mg / inhibition at 75 mg / inhibition at 130 mg: healthy subjects; for Emax at 25 mg / Emax at 75 mg / Emax at 130 mg / inhibition at 25 mg / inhibition at 75 mg / inhibition at 130 mg: Homo sapiens, po; for Emax at 25 mg / Emax at 75 mg / Emax at 130 mg: read-out: Epeak (maximum effect), LS means; for inhibition at 25 mg / inhibition at 75 mg / inhibition at 130 mg: read-out: Eavg0-24 h (average PGE2 inhibition over 24 hours), LS means
# Procedure: Part 1 consisted of a MAD, double-blind, sequential-group study in healthy subjects. Twenty-four adult male and female subjects were recruited into 3 cohorts. Subjects were enrolled in a sequential manner in cohorts of 8, each randomized in a ratio of 6:2, to receive Compound I or placebo, respectively, for a duration of 28 days. Three dose levels of Compound I (25, 75 and 130 mg) were studied in Cohorts A, B and C, respectively. For each cohort in Part 1, the planned Compound I, qd dosing occurred in the fasted state in the morning on Days 1 to 28, both inclusive. Subjects in each cohort started dosing on the same day, with no less than 5 minutes dose interval between subjects on Day 1.
# Concentrations below the limit of quantification were treated as ½ the lower limit of quantification for subsequent calculations.
# Time points where unstimulated PGE2 levels were 3 times greater than the mean of unstimulated PGE2 and greater than or equal to half of the baseline for a particular subject were not included in the calculation of these parameters.
# Baseline is the mean of Day −1 and pre-dose LPS stimulated PGE2.
# Abbreviations: CI=confidence interval; EAUC0-24h=area under the effect-time curve from time zero to 24 hours postdose; Eavg0-24h=the average PGE2 inhibition over 24 hours; Epeak=maximum effect; ETmax=time to reach maximum effect; LS=least squares; N=number of subjects; PGE2=prostaglandin E2; qd=once daily.
# ^a Median, median difference from placebo and approximate 95% CI.
# [1] = Safety and tolerability of single oral doses (Example 1); type: in vivo, human; conditions: single doses up to 1000 mg
# Procedure: In Part 1a, single doses of Compound I of 10 mg (Group A), 30 mg (Group B), 100 mg (Group C), 250 mg (Group D), 500 mg (Group E) and 1000 mg (Group F) were administered after fasting. In each dose group, 6 subjects received Compound I and 2 subjects received placebo.
# Adverse events (AEs), vital signs, 12-lead electrocardiogram (ECG), clinical laboratory evaluations and physical examination.
# Summary statistics were presented for the PK, pharmacodynamic (PD) and safety data, as appropriate. PK parameters following single oral doses of Compound I were determined from the plasma concentrations of Compound I using non-compartmental procedures in WinNonlin Dose proportionality was assessed using a power model, with tmax analyzed using the Kruskal-Wallis test. The effect of food on PK was assessed at the 100 and 250 mg doses using a mixed effects model. The effect of age on PK was assessed for elderly (>65 years) versus non-elderly (<65 years) at the 250 mg dose level in Parts 1a and 2, using an analysis of variance (ANOVA) with age as a fixed effect. For PD analyses, percent decrease of ex vivo LPS-induced PGE2 release was calculated. For Part 3, urinary excretion of prostanoid metabolites was also evaluated. The data are presented as absolute, as well as creatinine normalized urinary biomarker amounts, along percent change from baseline over a definite time interval. The percent change from baseline in urinary biomarkers was assessed using an analysis of covariance (ANCOVA) model
compound,measurement,setting,value
"CC(C)(C)C(=O)NCc1ccc(Cl)c(-c2nn(-c3ccc(C(F)(F)F)cc3)c(=O)[nH]2)c1 [Compound I, N-(4-chloro-3-(5-oxo-1-(4-(trifluoromethyl)phenyl)-4,5-dihydro-1H-1,2,4-triazol-3-yl)benzyl)pivalamide]","EAUC0-24 h, Difference in LS means (Compound I − placebo)","LPS-induced PGE2 release; Day 1, 25 mg qd",1225 % · h
same,"EAUC0-24 h, LS means","LPS-induced PGE2 release; Day 1, 25 mg qd",1562 % · h
same,"ETmax (time to reach maximum effect), Median","LPS-induced PGE2 release; Day 1, 25 mg qd",6.00 h
same,"ETmax, median difference from placebo","LPS-induced PGE2 release; Day 1, 25 mg qd",-6.00 h
same,"Eavg0-24 h, Difference in LS means (Compound I − placebo)","LPS-induced PGE2 release; Day 1, 25 mg qd",51.6%
same,"Epeak, Difference in LS means (Compound I − placebo)","LPS-induced PGE2 release; Day 1, 25 mg qd",35.0%
same,"EAUC0-24 h, Difference in LS means (Compound I − placebo)","LPS-induced PGE2 release; Day 1, 75 mg qd",1218 % · h
same,"EAUC0-24 h, LS means","LPS-induced PGE2 release; Day 1, 75 mg qd",1555 % · h
same,"ETmax (time to reach maximum effect), Median","LPS-induced PGE2 release; Day 1, 75 mg qd",23.8 h
same,"ETmax, median difference from placebo","LPS-induced PGE2 release; Day 1, 75 mg qd",5.77 h
same,"Eavg0-24 h, Difference in LS means (Compound I − placebo)","LPS-induced PGE2 release; Day 1, 75 mg qd",51.2%
same,"Epeak, Difference in LS means (Compound I − placebo)","LPS-induced PGE2 release; Day 1, 75 mg qd",26.7%
same,"EAUC0-24 h, Difference in LS means (Compound I − placebo)","LPS-induced PGE2 release; Day 1, 130 mg qd",1032 % · h
same,"EAUC0-24 h, LS means","LPS-induced PGE2 release; Day 1, 130 mg qd",1369 % · h
same,"ETmax (time to reach maximum effect), Median","LPS-induced PGE2 release; Day 1, 130 mg qd",4.00 h
same,"ETmax, median difference from placebo","LPS-induced PGE2 release; Day 1, 130 mg qd",-10.0 h
same,"Eavg0-24 h, Difference in LS means (Compound I − placebo)","LPS-induced PGE2 release; Day 1, 130 mg qd",43.5%
same,"Epeak, Difference in LS means (Compound I − placebo)","LPS-induced PGE2 release; Day 1, 130 mg qd",22.3%
same,"EAUC0-24 h, Difference in LS means (Compound I − placebo)","LPS-induced PGE2 release; Day 10, 25 mg qd",1461 % · h
same,"EAUC0-24 h, LS means","LPS-induced PGE2 release; Day 10, 25 mg qd",1443 % · h
same,"ETmax (time to reach maximum effect), Median","LPS-induced PGE2 release; Day 10, 25 mg qd",5.00 h
same,"ETmax, median difference from placebo","LPS-induced PGE2 release; Day 10, 25 mg qd",-7.00 h
same,"Eavg0-24 h, Difference in LS means (Compound I − placebo)","LPS-induced PGE2 release; Day 10, 25 mg qd",61.3%
same,"Epeak, Difference in LS means (Compound I − placebo)","LPS-induced PGE2 release; Day 10, 25 mg qd",45.0%
same,"EAUC0-24 h, Difference in LS means (Compound I − placebo)","LPS-induced PGE2 release; Day 10, 75 mg qd",1560 % · h
same,"EAUC0-24 h, LS means","LPS-induced PGE2 release; Day 10, 75 mg qd",1542 % · h
same,"ETmax (time to reach maximum effect), Median","LPS-induced PGE2 release; Day 10, 75 mg qd",12.0 h
same,"ETmax, median difference from placebo","LPS-induced PGE2 release; Day 10, 75 mg qd",-0.0333 h
same,"Eavg0-24 h, Difference in LS means (Compound I − placebo)","LPS-induced PGE2 release; Day 10, 75 mg qd",65.4%
same,"Epeak, Difference in LS means (Compound I − placebo)","LPS-induced PGE2 release; Day 10, 75 mg qd",42.7%
same,"EAUC0-24 h, Difference in LS means (Compound I − placebo)","LPS-induced PGE2 release; Day 10, 130 mg qd",1392 % · h
same,"EAUC0-24 h, LS means","LPS-induced PGE2 release; Day 10, 130 mg qd",1374 % · h
same,"ETmax (time to reach maximum effect), Median","LPS-induced PGE2 release; Day 10, 130 mg qd",4.00 h
same,"ETmax, median difference from placebo","LPS-induced PGE2 release; Day 10, 130 mg qd",-6.03 h
same,"Eavg0-24 h, Difference in LS means (Compound I − placebo)","LPS-induced PGE2 release; Day 10, 130 mg qd",58.4%
same,"Epeak, Difference in LS means (Compound I − placebo)","LPS-induced PGE2 release; Day 10, 130 mg qd",40.9%
same,"EAUC0-24 h, Difference in LS means (Compound I − placebo)","LPS-induced PGE2 release; Day 28, 25 mg qd",1281 % · h
same,"EAUC0-24 h, LS means","LPS-induced PGE2 release; Day 28, 25 mg qd",1621 % · h
same,"ETmax (time to reach maximum effect), Median","LPS-induced PGE2 release; Day 28, 25 mg qd",2.00 h
same,"ETmax, median difference from placebo","LPS-induced PGE2 release; Day 28, 25 mg qd",-6.00 h
same,"Eavg0-24 h, Difference in LS means (Compound I − placebo)","LPS-induced PGE2 release; Day 28, 25 mg qd",53.4%
same,"Epeak, Difference in LS means (Compound I − placebo)","LPS-induced PGE2 release; Day 28, 25 mg qd",18.0%
same,"EAUC0-24 h, Difference in LS means (Compound I − placebo)","LPS-induced PGE2 release; Day 28, 75 mg qd",1356 % · h
same,"EAUC0-24 h, LS means","LPS-induced PGE2 release; Day 28, 75 mg qd",1696 % · h
same,"ETmax (time to reach maximum effect), Median","LPS-induced PGE2 release; Day 28, 75 mg qd",10.0 h
same,"ETmax, median difference from placebo","LPS-induced PGE2 release; Day 28, 75 mg qd",0.0333 h
same,"Eavg0-24 h, Difference in LS means (Compound I − placebo)","LPS-induced PGE2 release; Day 28, 75 mg qd",56.4%
same,"Epeak, Difference in LS means (Compound I − placebo)","LPS-induced PGE2 release; Day 28, 75 mg qd",21.2%
same,"EAUC0-24 h, Difference in LS means (Compound I − placebo)","LPS-induced PGE2 release; Day 28, 130 mg qd",1192 % · h
same,"EAUC0-24 h, LS means","LPS-induced PGE2 release; Day 28, 130 mg qd",1531 % · h
same,"ETmax (time to reach maximum effect), Median","LPS-induced PGE2 release; Day 28, 130 mg qd",12.0 h
same,"ETmax, median difference from placebo","LPS-induced PGE2 release; Day 28, 130 mg qd",0.177 h
same,"Eavg0-24 h, Difference in LS means (Compound I − placebo)","LPS-induced PGE2 release; Day 28, 130 mg qd",49.6%
same,"Epeak, Difference in LS means (Compound I − placebo)","LPS-induced PGE2 release; Day 28, 130 mg qd",13.9%
same,Emax at 25 mg,"LPS-induced PGE2 release; 24 h, Day 1, 25 mg qd",90.4%
same,Emax at 75 mg,"LPS-induced PGE2 release; 24 h, Day 1, 75 mg qd",82.1%
same,Emax at 130 mg,"LPS-induced PGE2 release; 24 h, Day 1, 130 mg qd",77.8%
same,Emax at 25 mg,"LPS-induced PGE2 release; 240 h, Day 10, 25 mg qd",83.7%
same,Emax at 75 mg,"LPS-induced PGE2 release; 240 h, Day 10, 75 mg qd",81.4%
same,Emax at 130 mg,"LPS-induced PGE2 release; 240 h, Day 10, 130 mg qd",79.6%
same,Emax at 25 mg,"LPS-induced PGE2 release; 672 h, Day 28, 25 mg qd",84.2%
same,Emax at 75 mg,"LPS-induced PGE2 release; 672 h, Day 28, 75 mg qd",87.4%
same,Emax at 130 mg,"LPS-induced PGE2 release; 672 h, Day 28, 130 mg qd",80.1%
same,inhibition at 25 mg,"LPS-induced PGE2 release; Day 1, 25 mg qd",65.7%
same,inhibition at 75 mg,"LPS-induced PGE2 release; Day 1, 75 mg qd",65.4%
same,inhibition at 130 mg,"LPS-induced PGE2 release; Day 1, 130 mg qd",57.6%
same,inhibition at 25 mg,"LPS-induced PGE2 release; Day 10, 25 mg qd",60.6%
same,inhibition at 75 mg,"LPS-induced PGE2 release; Day 10, 75 mg qd",64.7%
same,inhibition at 130 mg,"LPS-induced PGE2 release; Day 10, 130 mg qd",57.6%
same,inhibition at 25 mg,"LPS-induced PGE2 release; Day 28, 25 mg qd",67.5%
same,inhibition at 75 mg,"LPS-induced PGE2 release; Day 28, 75 mg qd",70.6%
same,inhibition at 130 mg,"LPS-induced PGE2 release; Day 28, 130 mg qd",63.8%
same,inhibition of ex-vivo LPS-induced PGE2 release (in words),"LPS-induced PGE2 release; multiple oral doses 25 mg to 130 mg qd, Days 1, 10 and 28",marked drug-related inhibition
same,time by which maximal inhibition was reached,"LPS-induced PGE2 release; post-dose on Day 1, each dose level (first sampling occasion)",≤ 30 min
same,dose effect on incidence or severity of treatment-emergent AEs,[1],no evidence of a dose effect
same,lab abnormalities or ECG findings,[1],No clinically significant lab abnormalities or ECG findings
same,tolerability,[1]; healthy adult subjects,well tolerated
